Measured values taken from PubChem BioAssay AID210 (DTP/NCI, 2004).
Where “and” joins values, the source holds several entries; their conditions need not be identical. Equal entries are not always repeated. Toxic doses and inconclusive results are not listed. The calls were made as follows: active = survival T/C of 150% or more; inactive = T/C below 125% in these data.

Test system: CD2F1 mice, ip Colon 26 adenocarcinoma, median survival T/C
Assay: NCI In Vivo Anticancer Drug Screen. Data for tumor model Colon 26 Adenocarcinoma (intraperitoneal) in CD2F1 (CDF1) mice
Details: endpoint: median survival time, higher = longer survival
Protocol: The antitumor activity of compounds was measured in mice bearing transplantable tumors. Survival or tumor size were measured and the results are expressed as the measurement made in the treated group (T) divided by the measurement made in the vehicle treated control group (C). The tumor model used in this assay is Colon 26 Adenocarcinoma (intraperitoneal) in CD2F1 (CDF1) mice

[1] = dose: 50.0 mg/kg/injection, schedule: Q04DX003 (ip), vehicle: saline
[2] = dose: 100.0 mg/kg/injection, schedule: Q04DX003 (ip), vehicle: saline
[3] = dose: 200.0 mg/kg/injection, schedule: Q04DX003 (ip), vehicle: saline
[4] = dose: 400.0 mg/kg/injection, schedule: Q04DX003 (ip), vehicle: saline
[5] = dose: 50.0 mg/kg/injection, schedule: Q04DX002 (ip), vehicle: Klucel (hydroxypropylcellulose) (HPC)
[6] = dose: 100.0 mg/kg/injection, schedule: Q04DX002 (ip), vehicle: Klucel (hydroxypropylcellulose) (HPC)
[7] = dose: 200.0 mg/kg/injection, schedule: Q04DX002 (ip), vehicle: Klucel (hydroxypropylcellulose) (HPC)
[8] = dose: 400.0 mg/kg/injection, schedule: Q04DX002 (ip), vehicle: Klucel (hydroxypropylcellulose) (HPC)

Measured: T/C

O=C1NC(O)CCN1C1OC(CO)C(O)C1O (stereo not given)
inactive: [1] 101 % of control | [2] 101 % of control | [3] 98 % of control | [4] 100 % of control | dose: 800.0 mg/kg/injection, schedule: Q04DX003 (ip), vehicle: saline 108 % of control

Cc1cn(C2CC3[O][Sn]([c]4ccccc4)([c]4ccccc4)[O]CC3O2)c(=O)[nH]c1=O (stereo not given)
inactive: dose: 25.0 mg/kg/injection, schedule: Q04DX002 (ip), vehicle: saline 96 % of control | dose: 50.0 mg/kg/injection, schedule: Q04DX002 (ip), vehicle: saline 103 % of control | dose: 100.0 mg/kg/injection, schedule: Q04DX002 (ip), vehicle: saline 112 % of control

COc1cc([C@@H]2c3cc4c(cc3[C@@H](OC3OC5CO[C@@H](c6cccs6)OC5C(O)C3O)[C@H]3COC(=O)[C@H]23)OCO4)cc(OC)c1O (stereo not given in full)
inactive: dose: 5.0 mg/kg/injection, schedule: Q03DX002 (ip), vehicle: other 90 % of control | dose: 10.0 mg/kg/injection, schedule: Q03DX002 (ip), vehicle: other 92 % of control | dose: 30.0 mg/kg/injection, schedule: Q03DX002 (ip), vehicle: other 104 % of control

CC(C)CCC[C@@H](C)[C@H]1CC[C@H]2[C@@H]3CC=C4C[C@@H](OC(=O)Cc5ccc(N(CCCl)CCCl)cc5)CC[C@]4(C)[C@H]3CC[C@]12C
inactive: [5] 91 % of control | [6] 101 % of control | [7] 101 % of control | [8] 101 % of control

CCCCCCCC(=O)OCC(=O)[C@]1(O)Cc2c(O)c3c(c(O)c2[C@@H](OC2CC(N)C(O)C(C)O2)C1)C(=O)c1c(OC)cccc1C3=O (stereo not given in full)
inactive: dose: 4.5 mg/kg/injection, schedule: Q07DX003 (iv), vehicle: saline 112 % of control | dose: 7.0 mg/kg/injection, schedule: Q07DX003 (iv), vehicle: saline 112 % of control

C=CCCC(=O)CCCC(=O)O[C@@H]1[C@@H]2[C@H](CC1(C)C)[C@H](O)[C@@]13O[C@@H]1[C@H](O)[C@@]1(CO1)[C@@]23C
inactive: dose: 6.25 micrograms/kg/injection, schedule: Q04DX002 (ip), vehicle: Klucel (hydroxypropylcellulose) (HPC) 123 % of control | dose: 25.0 micrograms/kg/injection, schedule: Q04DX002 (ip), vehicle: Klucel (hydroxypropylcellulose) (HPC) 119 % of control and 120 % of control | dose: 50.0 micrograms/kg/injection, schedule: Q04DX002 (ip), vehicle: Klucel (hydroxypropylcellulose) (HPC) 102 % of control and 98 % of control | dose: 100.0 micrograms/kg/injection, schedule: Q04DX002 (ip), vehicle: Klucel (hydroxypropylcellulose) (HPC) 117 % of control | dose: 200.0 micrograms/kg/injection, schedule: Q04DX002 (ip), vehicle: Klucel (hydroxypropylcellulose) (HPC) 120 % of control and 88 % of control | dose: 400.0 micrograms/kg/injection, schedule: Q04DX002 (ip), vehicle: Klucel (hydroxypropylcellulose) (HPC) 100 % of control

COC(OC(CO)C(O)S(=O)(=O)O)C(O)S(=O)(=O)O (stereo not given)
inactive: dose: 12.5 mg/kg/injection, schedule: Q04DX003 (ip), vehicle: saline 97 % of control | dose: 25.0 mg/kg/injection, schedule: Q04DX003 (ip), vehicle: saline 102 % of control | [1] 102 % of control | [2] 108 % of control | [3] 109 % of control | [4] 100 % of control

O=C([O][Hg][CH2]C1COC([CH2][Hg][O]C(=O)c2ccccc2)CO1)c1ccccc1 (stereo not given)
inactive: dose: 37.5 mg/kg/injection, schedule: Q04DX003 (ip), vehicle: saline with Tween-80 89 % of control | dose: 75.0 mg/kg/injection, schedule: Q04DX003 (ip), vehicle: saline with Tween-80 94 % of control

NC(=O)c1ncn(C2OC(CO)C(O)C2O)c1O (stereo not given)
inactive: [5] 107 % of control | [6] 98 % of control | [7] 107 % of control | [8] 111 % of control

CCCCCCCCNc1cc2c3c(c1)CCCN3CCC2
inactive: dose: 0.37 mg/kg/injection, schedule: Q04DX003 (ip), vehicle: Klucel (hydroxypropylcellulose) (HPC) 104 % of control | dose: 0.75 mg/kg/injection, schedule: Q04DX003 (ip), vehicle: Klucel (hydroxypropylcellulose) (HPC) 100 % of control | dose: 1.5 mg/kg/injection, schedule: Q04DX003 (ip), vehicle: Klucel (hydroxypropylcellulose) (HPC) 102 % of control | dose: 3.0 mg/kg/injection, schedule: Q04DX003 (ip), vehicle: Klucel (hydroxypropylcellulose) (HPC) 109 % of control | dose: 6.0 mg/kg/injection, schedule: Q04DX003 (ip), vehicle: Klucel (hydroxypropylcellulose) (HPC) 106 % of control
